Assay results taken from patent publication US4303664A, “Novel penicillin derivatives containing a coumarin nucleus and medicines containing the same” (Teijin Limited, priority 1978, dated 1981).
In brackets after ≈: the same amount, converted by molar mass. Read-outs that look alike come from different tables or passages of the source.

Key:
Assay type in all cases: cell-based
[1] = system: Rettgerella var. Tid-21; assay: Bactericidal test (MIC), Rettgerella var. Tid-21
Text: (§1) Results of bactericidal tests (MIC, r/ml) on the penicillin derivatives of this invention prepared in the above examples are shown in the following table.

[2] = system: Enterobactor cloacae 147; assay: Bactericidal test (MIC), Enterobactor cloacae 147; details: (7) Enterobactor cloacae 147
Text: as §1

[3] = system: Pseudomonas aeruginosa GN-315; assay: Bactericidal test (MIC), Pseudomonas aeruginosa GN-315; details: GN315; (15) Pseudomonas aeruginosa GN-315
Text: as §1

[4] = system: Pseudomonas aeruginosa 0-37; assay: Bactericidal test (MIC), Pseudomonas aeruginosa 0-37; details: 037; (13) Pseudomonas aeruginosa 0-37
Text: as §1

[5] = system: Staphylococcus aureus 1248; assay: Bactericidal test (MIC), Staphylococcus aureus 1248
Text: as §1

[6] = system: Serratia G-18; assay: Bactericidal test (MIC), Serratia G-18; details: G18
Text: as §1

[7] = system: Staphylococcus aureus 209-p; assay: Bactericidal test (MIC), Staphylococcus aureus 209-p; details: (1) Staphylococcus aureus 209-p
Text: as §1

[8] = system: Klebsiella neumoniae ATCC10031; assay: Bactericidal test (MIC), Klebsiella neumoniae ATCC10031
Text: as §1

[9] = system: Enterobacter cloacae IF012937; assay: Bactericidal test (MIC), Enterobacter cloacae IF012937; details: (8) Enterobacter cloacae IF012937
Text: as §1

[10] = system: Escherichia Coli NIHJ JC-2; assay: Bactericidal test (MIC), Escherichia Coli NIHJ JC-2; details: NIHJJC2; (5) Escherichia Coli NIHJ JC-2
Text: as §1

[11] = system: Morganella var. G-2; assay: Bactericidal test (MIC), Morganella var. G-2; details: VAR.G2
Text: as §1

[12] = system: Pseudomonas aeruginosa Tid-53; assay: Bactericidal test (MIC), Pseudomonas aeruginosa Tid-53; details: TID53; (14) Pseudomonas aeruginosa Tid-53
Text: as §1

[13] = system: Pseudomonas aeruginosa 130; assay: Bactericidal test (MIC), Pseudomonas aeruginosa 130; details: (16) Pseudomonas aeruginosa 130
Text: as §1

[14] = system: Pseudomonas aeruginosa IFO-3080; assay: Bactericidal test (MIC), Pseudomonas aeruginosa IFO-3080; details: IFO3080
Text: as §1

[15] = system: Bacillus subtilis; assay: Bactericidal test (MIC), Bacillus subtilis; details: (3) Bacillus subtilis
Text: as §1

[16] = system: Salmonella typhimurium G-20; assay: Bactericidal test (MIC), Salmonella typhimurium G-20; details: Salmonella enterica; (4) Salmonella typhimurium G-20
Text: as §1

[17] = (10) Rettgerella var. Tid-21, read-out: MIC
[18] = (2) Staphylococcus aureus 1248, read-out: MIC
[19] = (11) Serratia G-18, read-out: MIC
[20] = (6) Klebsiella neumoniae ATCC10031, read-out: MIC
[21] = (9) Morganella var. G-2, read-out: MIC
[22] = (12) Pseudomonas aeruginosa IFO-3080, read-out: MIC

In the case of `COc1cc(OC)c2cc(C(=O)N[C@@H](C(=O)N[C@@H]3C(=O)N4[C@@H]3SC(C)(C)[C@@H]4C(=O)O)c3ccccc3)c(=O)oc2c1` [Example 22, D-α-(5,7-Dimethoxycoumarin-3-carbonamido)benzylpenicillin], the MIC [1, 17] is reported as 25 mg/L (≈ 43 µM), the MIC [2] is reported as 12.5 mg/L (≈ 21.5 µM) and the MIC [3] is reported as 6.25 mg/L (≈ 10.7 µM). For the same molecule, the MIC [4] was 50 mg/L (≈ 86 µM), the MIC [5, 18] was 3.13 mg/L (≈ 5.38 µM) and the MIC [6, 19] was 100 mg/L (≈ 172 µM). The MIC [7] was under 0.4 mg/L, the MIC [8, 20] was 1.56 mg/L (≈ 2.68 µM) and the MIC [9] was 50 mg/L (≈ 86 µM). It also gave an MIC [10] of under 0.4 mg/L, an MIC [11, 21] of 50 mg/L (≈ 86 µM) and an MIC [12] of 6.25 mg/L (≈ 10.7 µM). It also gave an MIC [13] of 3.13 mg/L (≈ 5.38 µM) and an MIC [14, 22] of 1.56 mg/L (≈ 2.68 µM).

`CC1(C)S[C@@H]2[C@H](NC(=O)[C@H](N)c3ccccc3)C(=O)N2[C@H]1C(=O)O` [Ampicillin, ampicillin, reference compound] showed an MIC [1] of 6.25 mg/L (≈ 17.9 µM), an MIC [2] of 400 mg/L (≈ 1140 µM) and an MIC [3] of over 400 mg/L. It also gave an MIC [4] of over 400 mg/L, an MIC [15] of under 0.8 mg/L and an MIC [5, 18] of under 0.8 mg/L. It also gave an MIC [6, 19] of 25 mg/L (≈ 71.5 µM), an MIC [7] of under 0.8 mg/L and an MIC ([8]; Klebsiella, ATCC10031) of 12.5 mg/L (≈ 35.8 µM). For the same molecule, the MIC [16] was under 0.8 mg/L, the MIC [10] was under 0.8 mg/L and the MIC ([11]; Morganella) was 12.5 mg/L (≈ 35.8 µM). It also gave an MIC [12] of over 400 mg/L, an MIC [13] of over 400 mg/L and an MIC [14, 22] of 200 mg/L (≈ 572 µM).

`Cc1cccc2cc(C(=O)N[C@@H](C(=O)N[C@@H]3C(=O)N4[C@@H]3SC(C)(C)[C@@H]4C(=O)O)c3ccccc3)c(=O)oc12` [Example 15, D(-)-α-(8-Methylcoumarin-3-carbonamido)benzylpenicillin] was tested, and the MIC [1, 17] was 50 mg/L (≈ 93.4 µM), the MIC [2] was 200 mg/L (≈ 373 µM) and the MIC [3] was 200 mg/L (≈ 373 µM). It also gave an MIC [4] of 200 mg/L (≈ 373 µM), an MIC [15] of under 0.4 mg/L and an MIC [5, 18] of 6.25 mg/L (≈ 11.7 µM). For the same molecule, the MIC [6, 19] was 200 mg/L (≈ 373 µM), the MIC [7] was under 0.4 mg/L and the MIC [8, 20] was 6.25 mg/L (≈ 11.7 µM). It also gave an MIC [16] of under 0.4 mg/L, an MIC [9] of 100 mg/L (≈ 187 µM) and an MIC [10] of under 0.4 mg/L. For the same molecule, the MIC [11, 21] was 100 mg/L (≈ 187 µM), the MIC [12] was 100 mg/L (≈ 187 µM) and the MIC [13] was 25 mg/L (≈ 46.7 µM). The MIC [14, 22] was 12.5 mg/L (≈ 23.3 µM).

For `CC1(C)S[C@@H]2[C@H](NC(=O)[C@H](NC(=O)c3cc4cc([N+](=O)[O-])ccc4oc3=O)c3ccccc3)C(=O)N2[C@H]1C(=O)O` [Example 13, D(-)-α-(6-Nitrocoumarin-3-carbonamido)benzylpenicillin], the MIC [1, 17] was 50 mg/L (≈ 88.3 µM), the MIC [2] was 25 mg/L (≈ 44.1 µM) and the MIC [3] was 12.5 mg/L (≈ 22.1 µM). It also gave an MIC [4] of 100 mg/L (≈ 177 µM), an MIC [15] of under 0.4 mg/L and an MIC [5, 18] of 6.25 mg/L (≈ 11 µM). For the same molecule, the MIC [6, 19] was 50 mg/L (≈ 88.3 µM), the MIC [7] was under 0.4 mg/L and the MIC [8, 20] was 12.5 mg/L (≈ 22.1 µM). The MIC [16] was under 0.4 mg/L, the MIC [9] was 12.5 mg/L (≈ 22.1 µM) and the MIC [10] was under 0.4 mg/L. It also gave an MIC [11, 21] of 6.25 mg/L (≈ 11 µM), an MIC [12] of 25 mg/L (≈ 44.1 µM) and an MIC [13] of 6.25 mg/L (≈ 11 µM). It also gave an MIC [14, 22] of 6.25 mg/L (≈ 11 µM).

`CC(=O)Nc1ccc2oc(=O)c(C(=O)N[C@@H](C(=O)N[C@@H]3C(=O)N4[C@@H]3SC(C)(C)[C@@H]4C(=O)O)c3ccccc3)cc2c1` [Example 20, D(-)-α-(6-Acetylaminocoumarin-3-carbonamido)benzylpenicillin] gave an MIC [1, 17] of 6.25 mg/L (≈ 10.8 µM), an MIC [2] of 6.25 mg/L (≈ 10.8 µM) and an MIC [3] of 6.25 mg/L (≈ 10.8 µM). It also gave an MIC [4] of 50 mg/L (≈ 86.4 µM), an MIC [15] of under 0.4 mg/L and an MIC [5, 18] of 3.13 mg/L (≈ 5.41 µM). It also gave an MIC [6, 19] of 50 mg/L (≈ 86.4 µM), an MIC [7] of under 0.4 mg/L and an MIC [8, 20] of 1.56 mg/L (≈ 2.7 µM). It also gave an MIC [16] of under 0.4 mg/L, an MIC [9] of 6.25 mg/L (≈ 10.8 µM) and an MIC [10] of under 0.4 mg/L. For the same molecule, the MIC [11, 21] was 6.25 mg/L (≈ 10.8 µM), the MIC [12] was 6.25 mg/L (≈ 10.8 µM) and the MIC [13] was 1.56 mg/L (≈ 2.7 µM). The MIC [14, 22] was 3.13 mg/L (≈ 5.41 µM).

For `CCOc1ccc2oc(=O)c(C(=O)N[C@@H](C(=O)N[C@@H]3C(=O)N4[C@@H]3SC(C)(C)[C@@H]4C(=O)O)c3ccccc3)cc2c1` [Example 23, D-α-(6-Ethoxycoumarin-3-carbonamido)benzylpenicillin], the MIC [1, 17] was 3.13 mg/L (≈ 5.53 µM), the MIC [2] was 1.56 mg/L (≈ 2.76 µM) and the MIC [3] was 3.13 mg/L (≈ 5.53 µM). The MIC [4] was 12.5 mg/L (≈ 22.1 µM), the MIC [6, 19] was 25 mg/L (≈ 44.2 µM) and the MIC [7] was under 0.4 mg/L. It also gave an MIC [8, 20] of 6.25 mg/L (≈ 11.1 µM), an MIC [9] of 6.25 mg/L (≈ 11.1 µM) and an MIC [10] of under 0.4 mg/L. The MIC [11, 21] was 3.13 mg/L (≈ 5.53 µM), the MIC [12] was 3.13 mg/L (≈ 5.53 µM) and the MIC [13] was 1.56 mg/L (≈ 2.76 µM). The MIC [14, 22] was 0.8 mg/L (≈ 1.41 µM).

In the case of `CC1(C)S[C@@H]2[C@H](NC(=O)C(C(=O)O)c3ccccc3)C(=O)N2[C@H]1C(=O)O` (stereo partly drawn) [Carbenicillin, carbenicillin, reference compound], the MIC [1, 17] is reported as 25 mg/L (≈ 66.1 µM), the MIC [2] is reported as 200 mg/L (≈ 529 µM) and the MIC [3] is reported as 100 mg/L (≈ 264 µM). It also gave an MIC [4] of over 400 mg/L, an MIC [15] of under 0.8 mg/L and an MIC ([5]; Staphylococcus aureus, 1248) of 3.13 mg/L (≈ 8.27 µM). The MIC ([6]; Serratia) was 6.25 mg/L (≈ 16.5 µM), the MIC [7] was under 0.8 mg/L and the MIC [8, 20] was 50 mg/L (≈ 132 µM). It also gave an MIC [16] of under 0.8 mg/L, an MIC [10] of under 0.8 mg/L and an MIC [11, 21] of 1.56 mg/L (≈ 4.12 µM). For the same molecule, the MIC [12] was 200 mg/L (≈ 529 µM), the MIC [13] was 25 mg/L (≈ 66.1 µM) and the MIC ([14]; Pseudomonas aeruginosa) was 12.5 mg/L (≈ 33 µM).
